Reference: US10000452B1, “Quinolone-based compounds, formulations, and uses thereof” (University of South Florida, priority 2016, dated 2018)
pEC50: −log10 of the molar value. Read-outs that look alike come from different tables or passages of the source.

How the values were obtained:
J774 mammalian cells = experiment: cytotoxicity to J774 cells; format: cell-based; settings: Mus musculus; for EC50: J774, read-out: EC50 J774 (μM)
Procedure: This allowed a simplified method for comparing the different assays being simultaneously run. Additionally, each compound was also tested for cytotoxicity using mammalian J774 cell lines in a 96-well plate format.^12-14, 16

[1] = tested on: malarial strain W2 (pyrimethamine and chloroquine-resistant); experiment: in vitro antimalarial activity against multidrug resistant strain W2; format: cell-based, P. falciparum; settings: for EC50: Plasmodium falciparum, read-out: EC50 W2 (nM)
[2] = tested on: P. berghei sporozoites expressing luciferase; experiment: in vitro liver stage activity, luciferase sporozoites infecting HEPG2 hepatoma cells; format: cell-based; settings: HEPG2 cells
[3] = tested on: malarial strain TM90-C2B (mefloquine, chloroquine, atovaquone, and pyrimethamine-resistant); experiment: microbe, parasite or virus in culture; format: cell-based, P. falciparum; settings: for RI: RI = EC50 TM90-C2B/EC50 W2; for EC50: Plasmodium falciparum, TM90, read-out: EC50 TM90-C2B (nM)
Excerpt: Ideally, the RI of a compound should lie between 0.3 and 3.0 in order to avoid rapidly inducing resistance in the parasite. […]

Pb-infected mice = experiment: in vivo efficacy scouting assay against blood stages; parameters: species or system P. berghei; mice; settings: Example 2: two mice, single 50 mg/kg oral dose in PEG400 on day 1 PE
Procedure: The screening involved a single oral 50 mg/kg dose 1 day post infection (PI) and an assessment of parasitemia on days 3 PI and 6 PI (Table 6).
The screening was performed by treating two infected mice with a single 50 mg/kg oral dose of test compound suspended in PEG400 on day 1 postexposure (PE) followed by assessing parasitemia on days 3 and 6 PE.

[4] = aqueous solubility (LC/MS- or HPLC-based assay); format: physicochemical; settings: aqueous solution (buffer not named), aqueous buffer, Example 2, at any given pH; read-out: solubility
Excerpt: Furthermore, to profile the properties of the piperazinyl-4(1H)-quinolones, and to identify potential limitations, aqueous solubility and lipophilicity log D were experimentally determined via LC/MS-based assays as described by the Manetsch laboratory previously^8,10,31,32 (Tables 9-12). Encouragingly, the piperazinyl-4(1H)-quinolones were much more soluble than the previously described phenoxyethoxy-4(1H)-quinolone analogues.^19 As expected, the solubility of all compounds was affected by pH, with better solubility under more acidic conditions.
In parallel to testing the compounds for in vitro antimalarial activity, a limited structure-property relationship (SPR) study focusing on log D and aqueous solubility was conducted to assess potential physiochemical liabilities (FIG. 22). […] For these reasons, physicochemical properties were not strongly considered as selection criteria for in vivo efficacy studies.

[5] = blood stage in vitro, strain W2
[6] = blood stage in vitro, atovaquone-resistant strain TM90-C2B

Molecule	EC50 [1] [nM]	RI [3]	EC50 [3] [nM]	EC50 W2 (nM) [1, 5]	other results
CCN(CC)CCCC(C)Nc1ccnc2cc(Cl)ccc12 (stereo not shown) [CQ, Chloroquine, reference compound]	–	–	–	–	pEC50 (J774 mammalian cells; J774, cytotoxicity, 96 well plate format, read-out: EC50 J774): 4.33
COC(=O)c1c[nH]c2cc(OCCOc3ccccc3)ccc2c1=O [Compound 6a, Methyl 4-Oxo-7-(2-phenoxyethoxy)-1,4-dihydroquinoline-3-carboxylate]	2.8	26.3	–	–	EC50 Pb (nM) [2]: subnanomolar; pEC50 ([2]; Plasmodium berghei): 9.54
COC(=O)c1c[nH]c2cc(OCCOc3ccccc3)c(OC)cc2c1=O [Compound 6aa, Methyl 6-Methoxy-4-oxo-7-(2-phenoxyethoxy)-1,4-dihydroquinoline-3-carboxylate]	–	1.60	–	–	–
COC(=O)c1c[nH]c2cc(OCCOc3ccccc3)c(Cl)cc2c1=O [Compound 6ab, Methyl 6-Chloro-4-oxo-7-(2-phenoxyethoxy)-1,4-dihydroquinoline-3-carboxylate]	9.93	–	617	–	pEC50 ([2]; Plasmodium berghei): 10.20
COC(=O)c1c[nH]c2cc(OCCOc3ccccc3)c(C)cc2c1=O [Compound 6ac, Methyl 6-Methyl-4-oxo-7-(2-phenoxyethoxy)-1,4-dihydroquinoline-3-carboxylate]	2.01	–	499	–	pEC50 ([2]; Plasmodium berghei): 6.82
CCCCc1cc2c(=O)c(C#N)c[nH]c2cc1OCCOc1ccccc1 [Compound 6ad, 6-Butyl-4-oxo-7-(2-phenoxyethoxy)-1,4-dihydroquinoline-3-carbonitrile]	–	–	–	high double-digit nM range	–
CCCCc1cc2c(=O)c(C(=O)OCC)c[nH]c2cc1OCCOc1ccccc1 [Compound 6af, Ethyl 6-Butyl-4-oxo-7-(2-phenoxyethoxy)-1,4-dihydroquinoline-3-carboxylate]	0.143	–	–	–	EC50 Pb (nM) [2]: subnanomolar
CCCCc1cc2c(=O)c(C(C)=O)c[nH]c2cc1OCCOc1ccccc1 [Compound 6ag, 3-Acetyl-6-butyl-7-(2-phenoxyethoxy)quinolin-4(1H)-one]	9.67	–	–	–	–
CCCCc1ccc2[nH]cc(C(=O)OC)c(=O)c2c1 [Compound 6c, Methyl 6-Butyl-4-oxo-1,4-dihydroquinoline-3-carboxylate]	1.58	141	222	–	EC50 Pb (nM) [2]: subnanomolar; pEC50 ([2]; Plasmodium berghei): 9.09
COC(=O)c1c[nH]c2ccccc2c1=O [Compound 6d, Methyl 4-Oxo-1,4-dihydroquinoline-3-carboxylate]	–	–	–	retained respectable potency	EC50 TM90-C2B (nM) [3, 6]: devoid of any activity
COC(=O)c1c[nH]c2ccc(OCc3ccccc3)cc2c1=O [Compound 6e, Methyl 6-(Benzyloxy)-4-oxo-1,4-dihydroquinoline-3-carboxylate]	11.6	–	1100	–	pEC50 ([2]; Plasmodium berghei): 6.90
COC(=O)c1c[nH]c2ccc(OCCc3ccccc3)cc2c1=O [Compound 6f, Methyl 4-Oxo-6-phenethoxy-1,4-dihydroquinoline-3-carboxylate]	–	–	–	double-digit nM	–
COC(=O)c1c[nH]c2ccc(OCCCc3ccccc3)cc2c1=O [Compound 6g, Methyl 4-Oxo-6-(3-phenylpropoxy)-1,4-dihydroquinoline-3-carboxylate]	–	–	–	double-digit nM	% inhibition on day 6 PE (Pb-infected mice): lack of significant parasitemia reduction
COC(=O)c1c[nH]c2cc(OCCCc3ccccc3)ccc2c1=O [Compound 6j, Methyl 4-Oxo-7-(3-phenylpropoxy)-1,4-dihydroquinoline-3-carboxylate]	0.711	–	–	–	% inhibition on day 6 PE (Pb-infected mice): 47.1%; pEC50 ([2]; Plasmodium berghei): 8.28
COC(=O)c1c[nH]c2cc(Cl)ccc2c1=O [Compound 6l, Methyl 7-Chloro-4-oxo-1,4-dihydroquinoline-3-carboxylate]	–	–	–	devoid of antimalarial activity	–
COC(=O)c1c[nH]c2cc(-c3ccccc3)ccc2c1=O [Compound 6m, Methyl 4-Oxo-7-phenyl-1,4-dihydroquinoline-3-carboxylate]	–	–	–	devoid of antimalarial activity	–
COC(=O)c1c[nH]c2cc(F)ccc2c1=O [Compound 6n, Methyl 7-Fluoro-4-oxo-1,4-dihydroquinoline-3-carboxylate]	26.2	–	395	–	–

Molecule	EC50 [1] [nM]	RI [3]	EC50 [3] [nM]	EC50 W2 (nM) [1, 5]	other results
COC(=O)c1c[nH]c2ccc(-c3ccccc3)cc2c1=O [Compound 6u, Methyl 4-Oxo-6-phenyl-1,4-dihydroquinoline-3-carboxylate]	–	–	–	devoid of activity	–
COC(=O)c1c[nH]c2cc(OCCOc3ccccc3)c(Br)cc2c1=O [Compound 6z, Methyl 6-Bromo-4-oxo-7-(2-phenoxyethoxy)-1,4-dihydroquinoline-3-carboxylate]	4.47	–	847	–	pEC50 ([2]; Plasmodium berghei): 9.47
CCCCc1cc2c(=O)c(C(=O)O)c[nH]c2cc1OCCOc1ccccc1 [Compound 7b, 6-Butyl-4-oxo-7-(2-phenoxyethoxy)-1,4-dihydroquinoline-3-carboxylic Acid]	64	–	1110	–	pEC50 ([2]; Plasmodium berghei): 9.57
Cc1[nH]c2cc(CN3CCN(c4ccc(C(F)(F)F)cc4)CC3)ccc2c(=O)c1Br [Compound 8aq, 3-Bromo-2-methyl-7-((4-(4-(trifluoromethyl)phenyl)piperazin-1-yl)methyl)quinolin-4(1H)-one]	121	0.79	95.4	–	EC50 (J774 mammalian cells): > 20 µM
Cc1[nH]c2cc(CN3CCN(c4ccc(C(F)(F)F)cc4)CC3)ccc2c(=O)c1Cl [Compound 8ar, 3-Chloro-2-methyl-7-((4-(4-(trifluoromethyl)phenyl)piperazin-1-yl)methyl)quinolin-4(1H)-one]	139	10.9	1510	–	EC50 (J774 mammalian cells): > 20 µM
COc1cc2c(=O)c(Br)c(C)[nH]c2cc1CN1CCN(c2ccc(C(F)(F)F)cc2)CC1 [Compound 8at, 3-Bromo-6-methoxy-2-methyl-7-((4-(4-(trifluoromethyl)phenyl)piperazin-1-yl)methyl)quinolin-4(1H)-one]	128	>39.1	> 5000	–	EC50 (J774 mammalian cells): > 20 µM
CCCCc1cc2c(=O)c(C(=O)NC)c[nH]c2cc1OCCOc1ccccc1 [Compound 13a, 6-Butyl-N-methyl-4-oxo-7-(2-phenoxyethoxy)-1,4-dihydroquinoline-3-carboxamide]	13.3	–	3980	–	–
CCCCc1cc2c(=O)c(C(=O)NCCO)c[nH]c2cc1OCCOc1ccccc1 [Compound 13d, 6-Butyl-N-(2-hydroxyethyl)-4-oxo-7-(2-phenoxyethoxy)-1,4-dihydroquinoline-3-carboxamide]	–	–	–	–	solubility [4]: > 20 µM
CCCCc1cc2c(=O)c(C(=O)NC(C)C)c[nH]c2cc1OCCOc1ccccc1 [Compound 13e, 6-Butyl-N-isopropyl-4-oxo-7-(2-phenoxyethoxy)-1,4-dihydroquinoline-3-carboxamide]	–	–	–	completely inactive	–
CCCCc1cc2c(=O)c(I)c[nH]c2cc1OCCOc1ccccc1 [Compound 16b, 6-Butyl-3-iodo-7-(2-phenoxyethoxy)quinolin-4(1H)-one]	1.23	4.91	6.04	–	–
CCCCc1cc2c(=O)c(Br)c[nH]c2cc1OCCOc1ccccc1 [Compound 16d, 3-Bromo-6-butyl-7-(2-phenoxyethoxy)quinolin-4(1H)-one]	4.64	–	48.7	–	–
CCCCc1cc2c(=O)c(Cl)c(C)[nH]c2cc1OCCOc1ccccc1 [Compound 16e, 6-Butyl-3-chloro-2-methyl-7-(2-phenoxyethoxy)quinolin-4(1H)-one]	6.92	9.79	67.7	–	–
C[C@H]1[C@@H](O)O[C@@H]2O[C@@]3(C)CC[C@H]4[C@H](C)CC[C@@H]1[C@@]24OO3 [DHA, dihydroartemisinin, reference compound]	–	–	–	–	EC50 (J774 mammalian cells): 1.53 µM
Methyl 4-oxo-7-(4-phenylpiperazin-1-yl)-1,4-dihydroquinoline-3-carboxylate [Compound 8a]	–	~1	–	inhibition against W2 was lost	–
Methyl 6-methyl-4-oxo-7-(4-phenylpiperazin-1-yl)-1,4-dihydroquinoline-3-carboxylate [Compound 8c]	–	–	–	retained respectable potency	EC50 TM90-C2B (nM) [3, 6]: devoid of any activity
Methyl 7-(4-benzylpiperazin-1-yl)-4-oxo-1,4-dihydroquinoline-3-carboxylate [Compound 8b]	–	1.31	–	–	pEC50 ([1]; blood stage in vitro, strain W2, read-out: EC50 W2): 6.48; pEC50 [2]: 8.24; pEC50 ([3]; blood stage in vitro, atovaquone-resistant strain TM90-C2B, read-out: EC50 TM90-C2B): 6.37
